Measurements published in article PMC9412414, “A Study on Repositioning Nalidixic Acid via Lanthanide Complexation: Synthesis, Characterization, Cytotoxicity and DNA/Protein Binding Studies” (Pharmaceuticals, 2022).

tested on: LoVo (human colorectal adenocarcinoma) cell line; assay: MTS cytotoxicity assay, LoVo cell line; assay type: cell-based; settings: 48 h of incubation
Description: (§1) LoVo, MDA-MB-231 and HUVEC human cell lines were purchased from American Type Culture Collection (ATCC). Cells were routinely maintained in culture either in culture flasks or seeded in plates, using Dulbecco’s modified Eagle medium/nutrient mixture F-12 (DMEM:F12) medium supplemented with […], 10% fetal calf serum (Sigma Aldrich, St. Louis, MO, USA), 100 units/mL penicillin, 100 μg/mL streptomycin and incubated at 37 °C in 5% CO2 humidified atmosphere.
(§2) Cytotoxicity studies were performed in 96-well microtiter plates with flat bottoms (Falcon, Teterboro, NJ, USA) using the CellTiter 96 Aqueous One Solution Cell Proliferation Assay (Promega, Madison, WI, USA), an MTS-based colorimetric assay. Metabolically active cells have the ability to reduce MTS [3-(4,5-dimethylthiazol-2-yl)-5-(3-carboxymethoxyphenyl)-2-(4-sulfophenyl)-2H-tetrazolium, inner salt], a yellow tetrazolium salt, to a colored formazan that is soluble in the culture medium. Briefly, 15 × 10^3 cells per well were cultured in 100 µL culture medium. After 24 h, adherent cells were treated with different concentrations of the studied compounds, as well as adriamycin (Adr) and cisplatin (Cis-Pt), used as positive controls for 24 h and 48 h, respectively. Each well was then filled with 20 µL of reagent containing MTS and PES (phenazine ethosulfate, a cationic dye with excellent chemical stability that binds to MTS and produces a stable solution). The resulting formazan was determined using a Tecan GENios Spectrophotometer (Tecan US, Durham, NC, USA) by measuring the absorbance at λ = 492 nm after incubation for 4 h at 37 °C with moderate agitation every 15 min. The cytotoxicity tests were performed in triplicate, with results reported as mean values with standard deviations (SD). The cytotoxicity of DMSO was also investigated under the same conditions, and no harmful effect was found at doses less than 1%.
(§3) Data were expressed as cell viability by comparing with untreated cells considered 100% viable, using the following formula:(1) Cell viability (%)=absorbance of treated cells−absorbance of culture medium/absorbance of untreated cells−absorbance of culture medium

How did the IC50 turn out when `CCn1cc(C(=O)[O-])c(=O)c2ccc(C)nc21.CCn1cc(C(=O)[O-])c(=O)c2ccc(C)nc21.O.O.O.[La+3].[OH-]` [La(nal)2, La(C12H11N2O3)2(OH)(H2O)·2H2O] was run?
Its IC50 is 25.1 ± 9.11 µM.

tested on: HUVEC (human umbilical vein endothelial cells); assay: MTS cytotoxicity assay, HUVEC normal cell line; assay type: cell-based; settings: 24 h of incubation
Description: as §1, §2, §3

For `CCn1cc(C(=O)[O-])c(=O)c2ccc(C)nc21.CCn1cc(C(=O)[O-])c(=O)c2ccc(C)nc21.O.O.O.[La+3].[OH-]` [La(nal)2, La(C12H11N2O3)2(OH)(H2O)·2H2O], which IC50 is on record?
The IC50 was 114 ± 46.8 µM.

tested on: EB–DNA system (CT-DNA); assay: Competitive binding assay with ethidium bromide (EB) through fluorescence spectroscopy; design: species or system calf; settings: EB 2 µM, CT-DNA 10 µM, compound 0–40 µM
Description: The fluorescence spectra were recorded using 1.6 mL samples containing 10 µM CT-DNA, 2 µM EB, and increasing amounts (0–40 µM with an increment of 5 µM) of tested compounds; the samples were prepared by keeping the components in contact for 10 min at room temperature, under continuous stirring and in the dark. The excitation wavelength was 500 nm, and the spectra were recorded between the wavelengths of 520 and 800 nm. A Jasco FP 6500 fluorometer and quartz cells with a 1 cm route length were employed. The classical Stern–Volmer equation (Equation (3)) was used to interpret the obtained data:(3) F0/F=1+KSV·[Q] F0 and F are the fluorescence intensities of the EB–DNA samples in the absence and presence of the tested compounds, respectively; KSV is the Stern–Volmer constant, which was computed as the slope from the plot of F0/F vs. [Q], where [Q] is the chemical concentration.
The binding ratio was plotted against the logarithm of the concentration in comparison with a control sample exposed solely to DMSO. (4) y=A1+(A2−A1)×x^n/K50^n+x^n
For fitting data points, the modified Hill function with offset (Origin®) was used: where y represents the binding ratio (F/F0), x represents the concentration, A1 represents the minimum of y values, A2 represents the maximum of y values, K50 represents the concentration corresponding to 50% binding or the half maximum binding constant, and n represents the Hill coefficient.

With `CCn1cc(C(=O)[O-])c(=O)c2ccc(C)nc21.CCn1cc(C(=O)[O-])c(=O)c2ccc(C)nc21.O.O.O.[La+3].[OH-]` [La(nal)2, La(C12H11N2O3)2(OH)(H2O)·2H2O] as the molecule, how does the “EB Displacement Assay K50 (half maximum binding constant)” value read?
Its value is 31.39 ± 13.66 µM.

What about the “KSV, Stern–Volmer quenching constant (EB–DNA)” value of the same molecule?
The value was 8.90 ± 0.17 M^−1 (×10^3).

molecular target: T1, apotransferrin (apo-Tf) (Homo sapiens, UniProt P02787); assay: Apo-Tf fluorescence quenching binding study; settings: apo-Tf 1 µM, 298 K
T1 construct: purchased Sigma-Aldrich Chemical Co. (Schnelldorf, Germany)
Description: (§4) Using a Jasco FP 6500 spectrofluorometer (Jasco, Tokyo, Japan) and quartz cells with a 1 cm path length, the fluorescence spectra of HSA and apo-Tf were recorded in the presence and absence of the examined substances. The 2.5 mL samples containing 2.5 µM HSA or 1 µM apo-Tf were titrated by adding 5 µL of the tested substance at a time, a volume that corresponded to a 1 µM increase in concentration. The concentration range used for these experiments varied from 0 to 8 µM. The relevant spectra were collected in the emission domains of 300–500 nm (HSA) and 305–500 nm (apo-Tf) after 3 min of continuous stirring at room temperature, using excitation wavelengths of 280 nm (HSA) and 295 nm (apo-Tf).
(§5) Experiments were conducted in a pH = 7.4 Tris-HCl buffer (5 mM Tris-HCl/50 mM NaCl for HSA and 5 mM Tris-HCl/50 mM NaCl/25 mM NaHCO3 for apo-Tf).
(§6) The following modified Stern–Volmer equation has been used to calculate the Stern–Volmer constant, which will be denoted as KSV* in order to differentiate it from the Stern–Volmer constant calculated for the DNA binding experiments:(5) F0/F0−F=1/faKsv*[Q]+1/fa where F0 and F are the fluorescence intensities in the absence and presence of the tested compounds, fa is the fraction of fluorophore accessible to the quencher (the tested compounds), [Q] is the quencher concentration, and KSV* (M^−1) is the Stern–Volmer constant; the plot of F0/(F0 − F) against 1/[Q] yields KSV as the slope and fa as the y intercept.
(§7) Subsequently, the bimolecular quenching rate constant was obtained by using Equation (6):(6) Ksv^*=Kqτ0
(§8) Kq (M^−1·s^−1) is the bimolecular quenching rate constant and τ0 is the fluorophore’s lifespan in the absence of the investigated chemicals (10^−8 s). The value of Kq can be used to assess whether the quenching phenomena have an underlying static or dynamic mechanism.
(§9) Using the following equation, the affinity constant (Ka) and the number of binding sites (n) have been calculated: (7) lgF0−F/F=lgKa+nlg[Q]
(§10) The binding affinity, Kd, can be calculated using the quadratic function below:(8) F0−F/F0−Fb=[P]t+[Q]+Kd−([P]t+[Q]+Kd)^2−4[P]t[Q]/2[P]t where F and F0 are the fluorescence intensities of the protein in the presence and absence of the quencher, respectively, Fb is the fluorescence of a fully bound protein–quencher, [P]t is the total concentration of the protein, and [Q] is the concentration of the added quencher. Each binding isotherm was plotted against the total quencher concentration in solution as a function of bound to free protein (F/F0).
(§11) The isotherms were then fitted using the nonlinear regression function below:(9) F/F0= F1+(F2−F1)Kdn/Kdn+[Q]^n where n represents the Hill coefficient, F1 and F2 are the horizontal and vertical asymptotes, respectively. The Kd in Equation (9) is derived from the quadratic binding function (Equation (8)).
(§12) Data were collected in triplicate, averaged, and expressed as mean value ± standard deviation (SD). All graph fitting models were defined and built using OriginPro® 2018.

T1 sequence (P02787 20-698): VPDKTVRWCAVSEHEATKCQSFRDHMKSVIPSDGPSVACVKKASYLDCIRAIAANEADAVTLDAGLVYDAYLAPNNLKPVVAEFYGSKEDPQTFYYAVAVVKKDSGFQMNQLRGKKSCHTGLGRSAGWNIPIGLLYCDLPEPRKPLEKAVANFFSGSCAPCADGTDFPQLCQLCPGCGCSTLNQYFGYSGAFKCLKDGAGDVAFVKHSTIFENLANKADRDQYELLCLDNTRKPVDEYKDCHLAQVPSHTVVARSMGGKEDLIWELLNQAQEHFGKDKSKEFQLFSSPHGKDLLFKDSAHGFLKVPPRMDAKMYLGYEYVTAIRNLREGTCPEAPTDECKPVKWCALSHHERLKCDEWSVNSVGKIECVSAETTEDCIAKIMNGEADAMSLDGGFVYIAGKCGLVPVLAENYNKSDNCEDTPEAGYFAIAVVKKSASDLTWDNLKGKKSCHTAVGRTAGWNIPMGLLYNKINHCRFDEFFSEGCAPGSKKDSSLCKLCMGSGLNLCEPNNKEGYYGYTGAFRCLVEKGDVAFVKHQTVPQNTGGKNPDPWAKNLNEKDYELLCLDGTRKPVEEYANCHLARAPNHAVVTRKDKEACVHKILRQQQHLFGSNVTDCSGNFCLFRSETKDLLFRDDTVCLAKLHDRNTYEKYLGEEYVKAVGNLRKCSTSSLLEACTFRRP

What does the source list for `CCn1cc(C(=O)[O-])c(=O)c2ccc(C)nc21.CCn1cc(C(=O)[O-])c(=O)c2ccc(C)nc21.O.O.O.[La+3].[OH-]` [La(nal)2, La(C12H11N2O3)2(OH)(H2O)·2H2O]?
Ka (association binding constant), Apo-Tf: (6.94 ± 2.32) × 10^4 M^−1; n1 (Number of Binding Sites), Apo-Tf: 1.00 ± 0.03; n2 (Hill Coefficient), Apo-Tf: 1.82 ± 0.55

same assay, conditions: apo-Tf 1 µM, 298 K; read-out: Kd (dissociation constant), Apo-Tf

Which Kd does the source give for `CCn1cc(C(=O)[O-])c(=O)c2ccc(C)nc21.CCn1cc(C(=O)[O-])c(=O)c2ccc(C)nc21.O.O.O.[La+3].[OH-]` [La(nal)2, La(C12H11N2O3)2(OH)(H2O)·2H2O] here?
Its Kd is 5.43 ± 1.46 µM.

same assay, conditions: apo-Tf 1 µM, compound 0–8 µM, 298 K

With `CCn1cc(C(=O)[O-])c(=O)c2ccc(C)nc21.CCn1cc(C(=O)[O-])c(=O)c2ccc(C)nc21.O.O.O.[La+3].[OH-]` [La(nal)2, La(C12H11N2O3)2(OH)(H2O)·2H2O] as the molecule, how does the “fa (fraction of fluorophore accessible to the quencher), Apo-Tf” value read?
The value was 1.20 ± 0.49.

same assay, conditions: apo-Tf 1 µM, compound 0–8 µM, Tris-HCl pH 7.4, 298 K

With `CCn1cc(C(=O)[O-])c(=O)c2ccc(C)nc21.CCn1cc(C(=O)[O-])c(=O)c2ccc(C)nc21.O.O.O.[La+3].[OH-]` [La(nal)2, La(C12H11N2O3)2(OH)(H2O)·2H2O] as the molecule, how does the “Ksv* (Stern–Volmer quenching constant), Apo-Tf” value read?
The value was “(0.44 ± 0.23) × 10^5 M^−1”.

same assay, conditions: from Ksv* with τ0 = 10^−8 s, 298 K

Which “Kq (bimolecular quenching constant), Apo-Tf” value does the source give for `CCn1cc(C(=O)[O-])c(=O)c2ccc(C)nc21.CCn1cc(C(=O)[O-])c(=O)c2ccc(C)nc21.O.O.O.[La+3].[OH-]` [La(nal)2, La(C12H11N2O3)2(OH)(H2O)·2H2O] here?
The value was 4.4e+12 M⁻¹ s⁻¹.

molecular target: T2, human serum albumin (HSA) (Homo sapiens, UniProt P02768); assay: HSA fluorescence quenching binding study; settings: HSA 2.5 µM, 298 K
T2 construct: purchased Sigma-Aldrich Chemical Co. (Schnelldorf, Germany)
Description: as §4, §5, §6, §7, §8, §9, §10, §11, §12

T2 sequence (P02768 25-609): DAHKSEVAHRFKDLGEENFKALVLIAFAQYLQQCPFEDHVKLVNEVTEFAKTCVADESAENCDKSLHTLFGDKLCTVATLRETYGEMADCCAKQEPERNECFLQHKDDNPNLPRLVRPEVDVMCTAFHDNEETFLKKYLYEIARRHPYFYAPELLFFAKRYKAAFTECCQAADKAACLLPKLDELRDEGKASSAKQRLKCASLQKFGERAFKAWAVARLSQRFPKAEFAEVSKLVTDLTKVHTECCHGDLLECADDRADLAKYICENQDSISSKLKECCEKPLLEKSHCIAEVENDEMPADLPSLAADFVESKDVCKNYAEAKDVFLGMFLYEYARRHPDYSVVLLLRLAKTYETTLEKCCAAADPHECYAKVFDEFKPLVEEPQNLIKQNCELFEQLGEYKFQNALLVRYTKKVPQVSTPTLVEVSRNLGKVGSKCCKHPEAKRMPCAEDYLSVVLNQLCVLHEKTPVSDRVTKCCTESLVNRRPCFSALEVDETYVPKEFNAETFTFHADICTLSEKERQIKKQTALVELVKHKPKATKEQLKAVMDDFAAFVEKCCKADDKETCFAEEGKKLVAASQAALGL

What does the source list for `CCn1cc(C(=O)[O-])c(=O)c2ccc(C)nc21.CCn1cc(C(=O)[O-])c(=O)c2ccc(C)nc21.O.O.O.[La+3].[OH-]` [La(nal)2, La(C12H11N2O3)2(OH)(H2O)·2H2O]?
Ka (association binding constant), HSA: (9.03 ± 1.04) × 10^5 M^−1; n1 (Number of Binding Sites), HSA: 1.09 ± 0.01; n2 (Hill Coefficient), HSA: 1.32 ± 0.11

same assay, conditions: HSA 2.5 µM, 298 K; read-out: Kd (dissociation constant), HSA

`CCn1cc(C(=O)[O-])c(=O)c2ccc(C)nc21.CCn1cc(C(=O)[O-])c(=O)c2ccc(C)nc21.O.O.O.[La+3].[OH-]` [La(nal)2, La(C12H11N2O3)2(OH)(H2O)·2H2O] was tested. Which Kd did it give?
The Kd was 3.35 ± 0.11 µM.

same assay, conditions: HSA 2.5 µM, compound 0–8 µM, 298 K

With `CCn1cc(C(=O)[O-])c(=O)c2ccc(C)nc21.CCn1cc(C(=O)[O-])c(=O)c2ccc(C)nc21.O.O.O.[La+3].[OH-]` [La(nal)2, La(C12H11N2O3)2(OH)(H2O)·2H2O] as the molecule, how does the “fa (fraction of fluorophore accessible to the quencher), HSA” value read?
The value was 1.09 ± 0.02.

same assay, conditions: HSA 2.5 µM, compound 0–8 µM, Tris-HCl pH 7.4, 298 K

How did the “Ksv* (Stern–Volmer quenching constant), HSA” value turn out when `CCn1cc(C(=O)[O-])c(=O)c2ccc(C)nc21.CCn1cc(C(=O)[O-])c(=O)c2ccc(C)nc21.O.O.O.[La+3].[OH-]` [La(nal)2, La(C12H11N2O3)2(OH)(H2O)·2H2O] was run?
Its value is “(1.09 ± 0.02) × 10^5 M^−1”.

same assay, conditions: from Ksv* with τ0 = 10^−8 s, 298 K

Which “Kq (bimolecular quenching constant), HSA” value does the source give for `CCn1cc(C(=O)[O-])c(=O)c2ccc(C)nc21.CCn1cc(C(=O)[O-])c(=O)c2ccc(C)nc21.O.O.O.[La+3].[OH-]` [La(nal)2, La(C12H11N2O3)2(OH)(H2O)·2H2O] here?
The value was 1.09e+13 M⁻¹ s⁻¹.
